Source: US20240216248A1, “MICROBIAL GLYCOLIPIDS” (ANALYTICON DISCOVERY GMBH, priority 2021, published 2024)
≈ marks a conversion by molar mass, not a printed value. Blank lines part the entries; values can stand above or below the molecule they belong to.

What was measured:
Emulsification index E24 = format: physicochemical; details: surfactant solution 100 mg/liter; 2 ml hexadecane to 4 ml aqueous sample; measured 24 h later
Method: The emulsification index was determined by using a modification of a method described by Cooper and Goldenberg (APPLIED AND ENVIRONMENTAL MICROBIOLOGY, February 1987. p. 224-229). Surfactant solutions were prepared at 100 mg/liter. Emulsifier activity was measured by adding 2 ml of hexadecane to 4 ml of aqueous sample and vortexing at high speed for 1 min. Measurements were made 24 h later. The emulsion index (E24) was calculated using the equation E24(%)=[(height of emulsion layer)/(total height)]×100. Lutensol […] was used as positive control.

Bacillus subtilis = test: Antimicrobial activity, micro broth dilution assay; format: cell-based
Method: (§1) The antimicrobial activity of selected compounds was determined by micro broth dilution assay.

Byssochlamys nivea = test: Antimicrobial activity, micro broth dilution assay; format: cell-based; details: Paecilomyces niveus
Method: as §1

Penicillium paneum = test: Antimicrobial activity, micro broth dilution assay; format: cell-based
Method: as §1

Staphylococcus aureus = test: Antimicrobial activity, micro broth dilution assay; format: cell-based
Method: as §1

Latilactobacillus sakei = test: Antimicrobial activity, micro broth dilution assay; format: cell-based
Method: as §1

Pseudomonas aeruginosa = test: Antimicrobial activity, micro broth dilution assay; format: cell-based
Method: as §1

Saccharomyces cerevisiae = test: Antimicrobial activity, micro broth dilution assay; format: cell-based
Method: as §1

Leuconostoc carnosum = test: Antimicrobial activity, micro broth dilution assay; format: cell-based
Method: as §1

Penicillium expansum = test: Antimicrobial activity, micro broth dilution assay; format: cell-based
Method: as §1

Neosartorya sp. = test: Antimicrobial activity, micro broth dilution assay; format: cell-based
Method: as §1

Aspergillus ruber = test: Antimicrobial activity, micro broth dilution assay; format: cell-based
Method: as §1

Penicillium chrysogenum = test: Antimicrobial activity, micro broth dilution assay; format: cell-based
Method: as §1

Penicillium roquefortii = test: Antimicrobial activity, micro broth dilution assay; format: cell-based
Method: as §1

[1] = tested on: Aspergillus montevidensis; test: Antimicrobial activity, micro broth dilution assay; format: cell-based
Method: as §1

Escherichia coli = test: Antimicrobial activity, micro broth dilution assay; format: cell-based
Method: as §1

Zygosaccharomyces bailii = test: Antimicrobial activity, micro broth dilution assay; format: cell-based
Method: as §1

Brettanomyces sp = test: Antimicrobial activity, micro broth dilution assay; format: cell-based
Method: as §1

Candida parapsilosis = test: Antimicrobial activity, micro broth dilution assay; format: cell-based; details: Lodderomyces parapsilosis
Method: as §1

E24 index (Emulsification index E24): 96%
Compound: CC(N)C(O)/C=C/CCCCCCCCCCCCCCC(OC1OC(CO)C(O)C(O)C1O)C(C)O (stereo not drawn) [J]

MIC (Bacillus subtilis): 250 µg/mL (≈ 492 µM)
MIC (Byssochlamys nivea): > 500 µg/mL
MIC (Penicillium paneum): 250 µg/mL (≈ 492 µM)
MIC (Staphylococcus aureus): 250 µg/mL (≈ 492 µM)
MIC (Latilactobacillus sakei): 125 µg/mL (≈ 246 µM)
MIC (Pseudomonas aeruginosa): 600 µg/mL (≈ 1180 µM)
MIC (Saccharomyces cerevisiae): 250 µg/mL (≈ 492 µM)
MIC (Leuconostoc carnosum): 500 µg/mL (≈ 985 µM)
MIC (Penicillium expansum): 250 µg/mL (≈ 492 µM)
MIC (Neosartorya sp.): 500 µg/mL (≈ 985 µM)
MIC (Aspergillus ruber): 125 µg/mL (≈ 246 µM)
MIC (Penicillium chrysogenum): 125 µg/mL (≈ 246 µM)
MIC (Penicillium roquefortii): 125 µg/mL (≈ 246 µM)
MIC [1]: 250 µg/mL (≈ 492 µM)
MIC (Escherichia coli): 600 µg/mL (≈ 1180 µM)
MIC (Zygosaccharomyces bailii): 125 µg/mL (≈ 246 µM)
MIC (Brettanomyces sp): 500 µg/mL (≈ 985 µM)
MIC (Candida parapsilosis): 500 µg/mL (≈ 985 µM)
E24 index (Emulsification index E24): 95%
Compound: CC(N)C(O)CCCCCCCCCCCCCCC(OC1OC(CO)C(O)C(O)C1O)C(C)O (stereo not drawn) [Compound A]

MIC (Bacillus subtilis): 250 µg/mL (≈ 467 µM)
MIC (Byssochlamys nivea): 500 µg/mL (≈ 933 µM)
MIC (Penicillium paneum): 500 µg/mL (≈ 933 µM)
MIC (Staphylococcus aureus): 250 µg/mL (≈ 467 µM)
MIC (Latilactobacillus sakei): 500 µg/mL (≈ 933 µM)
MIC (Pseudomonas aeruginosa): 250 µg/mL (≈ 467 µM)
MIC (Saccharomyces cerevisiae): 125 µg/mL (≈ 233 µM)
MIC (Leuconostoc carnosum): > 500 µg/mL
MIC (Penicillium expansum): 250 µg/mL (≈ 467 µM)
MIC (Neosartorya sp.): 125 µg/mL (≈ 233 µM)
MIC (Aspergillus ruber): 500 µg/mL (≈ 933 µM)
MIC (Penicillium chrysogenum): 125 µg/mL (≈ 233 µM)
MIC (Penicillium roquefortii): 250 µg/mL (≈ 467 µM)
MIC [1]: 500 µg/mL (≈ 933 µM)
MIC (Escherichia coli): 600 µg/mL (≈ 1120 µM)
MIC (Zygosaccharomyces bailii): 125 µg/mL (≈ 233 µM)
MIC (Brettanomyces sp): 125 µg/mL (≈ 233 µM)
MIC (Candida parapsilosis): 250 µg/mL (≈ 467 µM)
E24 index (Emulsification index E24): 99%
Compound: CC(N)C(O)CCCCCCCCCCCCCCCCC(OC1OC(CO)C(O)C(O)C1O)C(C)O (stereo not drawn) [B]

E24 index (Emulsification index E24): 65%
Compound: CC(O)C(CCCCCCCCCCCCCCCCC(O)C(C)NC=O)OC1OC(CO)C(O)C(O)C1O (stereo not drawn) [Compound E]

E24 index (Emulsification index E24): 95%
Compound: CC(N)C(O)C(O)CCCCCCCCCCCCCCCC(OC1OC(CO)C(O)C(O)C1O)C(C)O (stereo not drawn) [Compound I]

E24 index (Emulsification index E24): 100%
Compound: CC(O)C(CCCCCCCCCCCCCCCCC(O)C(C)NCC(=O)O)OC1OC(CO)C(O)C(O)C1O (stereo not drawn) [C]

E24 index (Emulsification index E24): 90%
Compound: CC(O)C(CCCCCCCCCCCCCCCCC(O)C(C)OC1OC(CO)C(O)C(O)C1O)OC1OC(CO)C(O)C(O)C1O (stereo not drawn) [D]

E24 index (Emulsification index E24): 100%
Compound: CC(O)C(O)CCCCCCCCCCCCCCCCC(OC1OC(CO)C(O)C(O)C1O)C(C)O (stereo not drawn) [F]

E24 index (Emulsification index E24): 94%
Compound: CC(O)C(CCCCCCCCCCCCCCCCC(O)C(C)NC(=O)CCC(=O)O)OC1OC(CO)C(O)C(O)C1O (stereo not drawn) [H]
